From patent US20220152226A1, “INTRACELLULAR DELIVERY AND MITOCHONDRIAL TARGETING BY FLUORINATION” (The Texas A&M University System, priority 2019, published 2022) come the findings set out here.

In one series the test system is HeLa cells. The series can be described thus: Mitochondrial membrane potential measurement (JC-1 dye, flow cytometry). To be noted: 50 μM, 1 h, compared to untreated cells (FIG. 6B). Type of series: cell-based, human. Here is the method: Mitochondrial Membrane Potential Measurement. The mitochondrial membrane potential was determined using the JC-1 dye by flow cytometry. Briefly, the HeLa cells were seeded at a density of 1×10^5 cells/well in 24-well plates for 24 h. The cells were incubated with the same molar concentration (50 μM) of the PEG2k-F7, TPP and CCCP (mitochondrial uncoupler) in the serum-free medium for 1 h. Then, the cells were washed three times by the iced-cold medium to remove the uninternalized materials. The cells were incubated with the JC-1 dye (Biotium) for 15 min at 37° C., followed by the flow cytometry.

Series [1] relates to isolated mitochondria (HeLa cells). Nature of the series: Competitive binding assay on isolated mitochondria (Rh123). More on the design: species or system human. Particulars: pre-incubation 37° C. 1 h, then Rh123 1 h. Here is the method: (§1) Mitochondria Isolation and Binding Affinity Study. The intracellular mitochondria were isolated by the commercial Mitochondria Isolation Kit for Cultured Cells (Thermo Fisher Scientific). Briefly, 2×10^7 HeLa cells were collected by trypsinization and centrifugation (850 g for 2 min). Then, the cells were lysed and the mitochondria were separated from other cell fragments by several washing and centrifugation steps as the manufacture's manual (Option A). The isolated mitochondria were freshly made for the binding affinity study.
For the competitive binding assay, the isolated mitochondria were pre-incubated with triphenylphosphonium (TPP) or PEG2k-F7 at 37° C. for 1 h, and then washed with PBS for three times. The pretreated mitochondria were incubated with Rh123 at 37° C. for additional 1 h. After washing with PBS for three times, the mitochondria were analyzed by the microplate reader.

Series [2] is described as follows: Body weight and white blood cell counts of treated 4T1 tumor mice. Type of series: in vivo, BALB/c mice. The protocol: Animal experiments. The subcutaneous (s.c.) syngeneic 4T1 tumor mouse model was established by s.c. implantation of 5×10^6 4T1 cells in the right rear flank of the BALB/c mice. The tumor was measured by a caliper.
To study anticancer activity, the saline, VES, PEG2k-F7, VES-loaded PEG2k-PE micelles and VES-loaded PEG2k-F7 micelles were injected intravenously via the tail at a dose of 20 mg/kg every three days for 3 injections. The tumor size and mouse body weight were monitored every other day. The mice were sacrificed and the blood, major organs and tumors were collected. White blood cells were counted by using a hemocytometry by microscopy.

The test system of series [3] is isolated mitochondria (HeLa cells). The series can be described thus: Binding affinity study with isolated mitochondria. Particulars: 37° C., 1 h, fluorescence. More on the design: species or system human. The protocol: as §1
The isolated mitochondria were incubated with the FITC-PEG2k, FITC-PE, FITC-F7, FITC-PEG2k-F7, Rh123, and MITOVIEW™ Green at 37° C. for 1 h, respectively. Then, the mitochondria were washed with PBS for three times and suspended in 200 μL PBS. The mitochondria suspension was observed on a Nikon Ti Eclipse fluorescence microscope. The fluorescence intensity was recorded on the microplate reader.

A further series has as its system mitochondria. The series can be described thus: Quantification of mitochondria-accumulated dyes in living cells. It is filed as cell-based. Here is the method:
For quantification of the mitochondria-accumulated dyes in living cells, 2×10^7 cells were incubated with the FITC-PE, FITC-F7, or Rh123 at 37° C. for 1 h. After washing with PBS, the (total) cellular fluorescence intensity was measured by microplate reader. Then, the cells were lysed and the mitochondria were separated from other cell fragments by Mitochondria Isolation Kit for Cultured Cells (Option A). The fluorescence intensities of the isolated mitochondria and other cell fragments were measured by the microplate reader. To study the influence of mitochondrial membrane potential on mitochondrial targeting, the cells were pre-incubated with the uncoupler, CCCP (50 μM), for 15 min, and then incubated with the FITC-F7 or Rh123 for 1 h.

Take `c1ccc(P(c2ccccc2)c2ccccc2)cc1` [TPP, triphenylphosphonium]: the “effect on mitochondrial membrane potential” value with HeLa cells is given as “dramatically depolarized mitochondria”. Further, in series [1], the “decrease of Rh123 binding affinity by pre-incubation” value is given as “about 50%”.
`Cc1c(C)c2c(c(C)c1OC(=O)CCC(=O)O)CC[C@@](C)(CCC[C@H](C)CCC[C@H](C)CCCC(C)C)O2` [VES, d-Vitamin E succinate]: the “white blood cell (WBC) counts” value in series [2] (FIG. 13) is “relatively similar to one another”. The “body weight of mice” value in series [2] (over 14 days (FIG. 10)) is “stayed relatively the same”.
Take fluorescein isothiocyanate [FITC]: the “binding affinity with isolated mitochondria” value in series [3] is recorded as “did not significantly bind”.
In the case of rhodamine 123 [Rh123], the “effect of CCCP-induced membrane depolarization on mitochondrial accumulation” value in the series on mitochondria (CCCP 50 μM pre-incubation 15 min, then dye 1 h) is recorded as “substantially reduced”. In the series on mitochondria (mitochondria isolated from treated cells, 37° C., 1 h), this compound returned a mitochondrial accumulation of 17.5%.
